For 4 compounds, IC50 results are on record in patent publication US20210230170A1, “KRAS G12C INHIBITORS” (Mirati Therapeutics, Inc., priority 2018, published 2021).

Usually IC50 stands for the concentration needed to halve the response being measured.

The assay deals with T1, KRas G12C (Homo sapiens, UniProt P01116, G12C).
T1 construct: NCI-H358 cells (ATCC CRL-5807) express KRas G12C; host or cells: NCI-H358
T1 sequence (P01116 1-188 isoform P01116-2 G12C): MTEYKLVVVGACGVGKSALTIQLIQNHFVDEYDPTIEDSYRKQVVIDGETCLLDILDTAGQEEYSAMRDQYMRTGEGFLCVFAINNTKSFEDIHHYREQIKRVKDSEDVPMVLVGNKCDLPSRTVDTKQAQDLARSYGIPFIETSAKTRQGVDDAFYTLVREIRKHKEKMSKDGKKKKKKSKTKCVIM
Kind of assay: Inhibition of KRas G12C in NCI-H358 cells measured by phosphorylated ERK (Phospho-ERK). In kind it is cell-based. To be noted: pERK(Thr202/Tyr204) signal normalized with GAPDH, percent of DMSO control, 3 hours compound treatment. On the procedure: The cellular inhibition of KRAs G12C by exemplary compounds of the present invention was determined by measuring the amount of a downstream marker of KRas activity, phosphorylated ERK (“Phospho-ERK”).
NCI-H358 cells (ATCC CRL-5807) express KRas G12C and were grown in RPMI medium supplemented with 10% fetal bovine serum, penicillin/streptomycin and 10 mM HEPES. Cells were plated in poly-D-Lysine coated 96-well plates at a concentration of 50,000 cells/well and allowed to attach for 8-12 hours. Diluted compounds were then added at a final concentration of 0.5% DMSO. After 3 hours, the medium was removed, 150 μL of 4% formaldehyde was added and the plates were incubated for 20 minutes. The plates were washed with PBS, and permeabilized using 150 μL of ice cold 100% methanol for 10 minutes. Non-specific antibody binding to the plates was blocked using 100 μL Licor Blocking Buffer (Li-Cor Biotechnology, Lincoln Nebr.) for 1 hour at room temperature. Positive control samples and samples lacking cells were parallel processed with test samples as standards.
The amount Phospho-ERK was determined using an antibody specific for the phosphorylated form of ERK and compared to the amount of GAPDH. Primary antibodies used for detection were added as follows: Phospho-ERK (Cell Signaling cs9101) diluted 1:500 and GAPDH (Millipore MAB374) diluted 1:5000 in Licor block+0.05% Tween 20. The plates were incubated for 2 hours at room temperature. The plates were washed with PBS+0.05% Tween 20.
Secondary antibodies used to visualize primary antibodies were added as follows: Anti-rabbit-680 diluted 1:1000 and Anti-mouse-800 diluted 1:1000 in Licor Block+0.05% Tween 20 and incubated for 1 hour at room temperature. The plates were washed with PBS+0.05% Tween 20. A 100 μL aliquot of PBS was added to each well and the plates were read on a LICOR AERIUS plate reader.
The pERK(Thr202/Tyr204) signal was normalized with the GAPDH signal and percent of DMSO control values were calculated. IC50 values were generated using a 4 parameter fit of the dose response curve. Key: “A”≤500 nM; “B”>500 nM and ND=not determined.
For the compound `C=CC(=O)N1CCN(c2nc(OC[C@@H]3CCCN3C)nc3c2CCCN(c2cccc4c(C)cccc24)C3)C[C@@H]1CC#N` [Example 11, 2-((S)-1-acryloyl-4-(8-(5-methylnaphthalen-1-yl)-2-(((S)-1-methylpyrrolidin-2-yl)methoxy)-6,7,8,9-tetrahydro-5H-pyrimido[4,5-c]azepin-4-yl)piperazin-2-yl)acetonitrile], the IC50 was over 500 nM.
Compound `C=CC(=O)N1CCN(c2nc(OC[C@@H]3CCCN3C)nc3c2CCCN(c2cccc4cccc(C(F)(F)F)c24)C3)C[C@@H]1CC#N` [Example 21, 2-((S)-1-acryloyl-4-(2-(((S)-1-methylpyrrolidin-2-yl)methoxy)-8-(8-(trifluoromethyl)naphthalen-1-yl)-6,7,8,9-tetrahydro-5H-pyrimido[4,5-c]azepin-4-yl)piperazin-2-yl)acetonitrile] registered an IC50 of over 500 nM.
In turn, `C=CC(=O)N1CCN(c2ncnc3c2CCCN(c2cccc4cccc(C)c24)C3)C[C@@H]1CC#N` [Example 25, 2-[(2S)-4-[8-(8-methyl-1-naphthyl)-5,6,7,9-tetrahydropyrimido[4,5-c]azepin-4-yl]-1-prop-2-enoyl-piperazin-2-yl]acetonitrile] displayed an IC50 of over 500 nM.
As for `C=C(F)C(=O)N1CCN(c2nc(OC[C@@H]3CCCN3C)nc3c2CCCN(c2cccc4ccccc24)C3)C[C@@H]1CC#N` [Example 22, 2-((S)-1-(2-fluoroacryloyl)-4-(2-(((S)-1-methylpyrrolidin-2-yl)methoxy)-8-(naphthalen-1-yl)-6,7,8,9-tetrahydro-5H-pyrimido[4,5-c]azepin-4-yl)piperazin-2-yl)acetonitrile], the IC50 was over 500 nM.
